Key:
hNav1.7 = hNav1.7 (Homo sapiens (Human), UniProt Q15858); assay: Electrophysiology (EP) assay, whole-cell patch clamp; type: cell-based; details: hNav1.7 HEK-293 cells
human Nav1.7 = human Nav1.7 (Homo sapiens (Human), UniProt Q15858); assay: FLIPR sodium dye assay for sodium channel blocking activity; type: cell-based; details: recombinant Nav1.7/HEK293 cells
Sequence of human Nav1.7 (Q15858 other isoform, or with tags, fused parts or gaps): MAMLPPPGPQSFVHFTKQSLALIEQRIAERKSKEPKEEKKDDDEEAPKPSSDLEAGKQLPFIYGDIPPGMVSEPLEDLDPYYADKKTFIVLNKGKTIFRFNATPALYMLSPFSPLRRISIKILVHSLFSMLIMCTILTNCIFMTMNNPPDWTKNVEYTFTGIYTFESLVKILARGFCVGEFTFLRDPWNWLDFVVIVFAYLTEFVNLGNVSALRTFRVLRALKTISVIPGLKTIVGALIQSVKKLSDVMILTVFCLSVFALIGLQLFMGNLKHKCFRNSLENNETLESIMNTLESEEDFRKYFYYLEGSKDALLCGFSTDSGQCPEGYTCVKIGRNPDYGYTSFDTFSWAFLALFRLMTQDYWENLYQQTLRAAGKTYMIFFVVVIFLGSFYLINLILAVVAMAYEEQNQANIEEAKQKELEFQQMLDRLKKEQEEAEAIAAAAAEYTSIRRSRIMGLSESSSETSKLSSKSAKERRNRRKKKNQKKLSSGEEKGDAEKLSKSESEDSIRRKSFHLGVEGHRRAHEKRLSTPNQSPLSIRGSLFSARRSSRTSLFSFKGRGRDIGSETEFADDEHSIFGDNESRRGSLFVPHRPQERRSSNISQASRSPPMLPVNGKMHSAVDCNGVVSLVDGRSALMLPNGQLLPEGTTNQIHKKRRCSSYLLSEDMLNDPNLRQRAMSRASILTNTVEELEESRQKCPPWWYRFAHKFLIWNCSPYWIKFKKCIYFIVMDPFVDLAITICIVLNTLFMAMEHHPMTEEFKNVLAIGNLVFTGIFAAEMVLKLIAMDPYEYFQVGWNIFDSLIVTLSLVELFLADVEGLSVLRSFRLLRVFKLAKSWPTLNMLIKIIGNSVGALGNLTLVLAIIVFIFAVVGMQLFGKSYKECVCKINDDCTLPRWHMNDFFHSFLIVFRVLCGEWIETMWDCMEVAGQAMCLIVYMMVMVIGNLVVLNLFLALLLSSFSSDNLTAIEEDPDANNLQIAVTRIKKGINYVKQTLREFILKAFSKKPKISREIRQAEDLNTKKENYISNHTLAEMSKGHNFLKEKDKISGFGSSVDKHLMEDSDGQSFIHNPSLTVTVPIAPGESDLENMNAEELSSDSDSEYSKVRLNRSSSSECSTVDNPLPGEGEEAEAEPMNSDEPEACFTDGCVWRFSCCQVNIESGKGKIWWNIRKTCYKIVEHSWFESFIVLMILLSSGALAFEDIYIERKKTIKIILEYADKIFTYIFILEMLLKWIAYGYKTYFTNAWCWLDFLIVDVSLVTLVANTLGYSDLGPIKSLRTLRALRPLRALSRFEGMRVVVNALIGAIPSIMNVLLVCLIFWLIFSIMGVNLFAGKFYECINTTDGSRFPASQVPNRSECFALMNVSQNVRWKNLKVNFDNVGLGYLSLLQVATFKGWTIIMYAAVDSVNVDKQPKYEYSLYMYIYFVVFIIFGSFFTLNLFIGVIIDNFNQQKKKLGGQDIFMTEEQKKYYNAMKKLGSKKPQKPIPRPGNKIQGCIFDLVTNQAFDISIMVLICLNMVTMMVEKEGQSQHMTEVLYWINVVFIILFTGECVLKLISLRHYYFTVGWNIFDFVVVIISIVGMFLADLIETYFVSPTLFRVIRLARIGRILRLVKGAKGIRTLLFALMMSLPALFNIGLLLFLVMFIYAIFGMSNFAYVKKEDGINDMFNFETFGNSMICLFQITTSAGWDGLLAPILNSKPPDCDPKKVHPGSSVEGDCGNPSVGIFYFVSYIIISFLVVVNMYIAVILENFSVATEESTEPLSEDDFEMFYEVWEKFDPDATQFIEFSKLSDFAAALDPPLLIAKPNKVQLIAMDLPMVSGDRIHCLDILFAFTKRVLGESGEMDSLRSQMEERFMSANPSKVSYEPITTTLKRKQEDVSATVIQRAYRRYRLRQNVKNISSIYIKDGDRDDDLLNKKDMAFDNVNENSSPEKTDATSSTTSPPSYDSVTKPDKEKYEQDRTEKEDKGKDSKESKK

Sequence of hNav1.7 (Q15858 other isoform, or with tags, fused parts or gaps): as above

Row | Ki (hNav1.7; affinity for the inactivated state of the channel, read-out: Nav1.7 Activity EP assay Ki) [µM] | Kd (hNav1.7; dissociation constant for binding to the resting state of the channel, read-out: Nav1.7 Activity EP assay Kr) [µM] | IC50 (human Nav1.7) [µM] | Structure (SMILES)
1 | 6.03 ± 0.91 | 125 ± 23.4 | 0.872 ± 0.255 | Cc1cc(C(=O)NCC[N+]2(C)CCCCC2)cc(-c2ccc(Oc3ccc(F)cc3)cc2)n1 [Example 1, 1-[2-({2-[4-(4-fluoro-phenoxy)-phenyl]-6-methyl-pyridine-4-carbonyl}-amino)-ethyl]-1-methyl-piperidinium]
2 |  |  | 1.88 ± 0.287 | Cc1cc(C(=O)NCC[N+]2(C)CCOCC2)cc(-c2ccc(Oc3ccc(F)cc3)cc2)n1 [Example 2, 4-[2-({2-[4-(4-fluoro-phenoxy)-phenyl]-6-methyl-pyridine-4-carbonyl}-amino)-ethyl]-4-methyl-morpholin-4-ium]
3 |  |  | > 20 | Cc1cc(C(=O)N2CCC([N+]3(C)CCCC3)CC2)cc(-c2ccc(Oc3ccc(F)cc3)cc2)n1 [Example 3, 1-(1-{2-[4-(4-fluoro-phenoxy)-phenyl]-6-methyl-pyridine-4-carbonyl}-piperidin-4-yl)-1-methyl-pyrrolidinium]
4 |  |  | 3.99 ± 0.289 | Cc1cc(C(=O)NCc2ccc([N+](C)(C)C)cc2)cc(-c2ccc(Oc3ccc(F)cc3)cc2)n1 [Example 4, {4-[({2-[4-(4-fluoro-phenoxy)-phenyl]-6-methyl-pyridine-4-carbonyl}-amino)-methyl]-phenyl}-trimethyl-ammonium]
5 |  |  | 2.9 ± 0.375 | Cc1cc(C(=O)NCC[N+]2(C)CCCC2)cc(-c2ccc(Oc3ccc(F)cc3)cc2)n1 [Example 5, 1-[2-({2-[4-(4-fluoro-phenoxy)-phenyl]-6-methyl-pyridine-4-carbonyl}-amino)-ethyl]-1-methyl-pyrrolidinium]
6 |  |  | 6.52 ± 0.466 | Cc1cc(C(=O)NCC[N+](C)(C)C)cc(-c2ccc(Oc3ccc(F)cc3)cc2)n1 [Example 6, [2-({2-[4-(4-fluoro-phenoxy)-phenyl]-6-methyl-pyridine-4-carbonyl}-amino)-ethyl]-trimethyl-ammonium]
7 |  |  | > 20 | Cc1cc(C(=O)N2CC[N+](C)(C)CC2)cc(-c2ccc(Oc3ccc(F)cc3)cc2)n1 [Example 7, 4-{2-[4-(4-Fluoro-phenoxy)-phenyl]-6-methyl-pyridine-4-carbonyl}-1,1-dimethyl-piperazin-1-ium]
8 |  |  | > 20 | Cc1cc(C(=O)N(C)C2CC[N+](C)(C)CC2)cc(-c2ccc(Oc3ccc(F)cc3)cc2)n1 [Example 8, 4-({2-[4-(4-Fluoro-phenoxy)-phenyl]-6-methyl-pyridine-4-carbonyl}-methyl-amino)-1,1-dimethyl-piperidinium]

From US9388137B2, “Quaternized amines as sodium channel blockers” (Purdue Pharma L.P., priority 2011, dated 2016)
